Source: patent US20240132484A1, “BROAD SPECTRUM ANTIVIRAL COMPOUNDS TARGETING THE SKI COMPLEX” (priority 2020, published 2024)
Where “and” joins values, the source holds several entries; their conditions need not be identical. Equal entries are not always repeated. Entries after “also recorded” stand apart in the source; their conditions may differ. Where two headings read alike, the source gives them in different places.

Legend:
SARS2 = type: cell-based, SARS-CoV-2; conditions: for Infection Data: Percentage Infection Relative to Appropriate DMSO Control / Infection Data, Percentage Infection Relative to Appropriate DMSO Control: avg background subtraction; for Infection Data: Percentage Infection Relative to Appropriate DMSO Control: replicate wells; for Infection Data: Average, Mean: average of Exp 1-3 (SMW475, SMW477, SMW478), n 9; for Percentage Inhibition Average 1 μM / Screening data (Relative infection to DMSO controls) Average 1 μM: SARS2, 1 μM; for Screening data (Relative infection to DMSO controls) Average 1 μM / Screening data (Relative infection to DMSO controls) Average 5 μM / Screening data (Relative infection to DMSO controls) Average 10 μM / Screening data (Relative infection to DMSO controls) Average 25 μM / Screening data (Relative infection to DMSO controls) Average 50 μM / Average (relative infection to DMSO over the 5 tested concentrations): 100=DMSO control; for Percentage Inhibition Average 5 μM / Screening data (Relative infection to DMSO controls) Average 5 μM: SARS2, 5 μM; for Percentage Inhibition Average 10 μM / Screening data (Relative infection to DMSO controls) Average 10 μM: SARS2, 10 μM; for Percentage Inhibition Average 25 μM / Screening data (Relative infection to DMSO controls) Average 25 μM: SARS2, 25 μM; for Percentage Inhibition Average 50 μM / Screening data (Relative infection to DMSO controls) Average 50 μM: SARS2, 50 μM; for Average (relative infection to DMSO over the 5 tested concentrations): SARS2, average over 1 to 50 uM; for Infection Data, Average, Mean percentage infection relative to DMSO control: Average of Exp 1 (SMW491) and Exp 2 (SMW492); for Infection Data, Percentage Infection Relative to Appropriate DMSO Control: single well
cells (nuclei count) = conditions: for Toxicity Data: Average, Mean: average of Exp 1-3 (SMW475, SMW477, SMW478), n 9; for Relative cell count to DMSO controls, Average 1 μM / Relative cell count to DMSO controls, Average 5 μM / Relative cell count to DMSO controls, Average 10 μM / Relative cell count to DMSO controls, Average 25 μM / Relative cell count to DMSO controls, Average 50 μM: toxicity data, 100=DMSO control; for Relative cell count to DMSO controls, Average (for correlation analysis): average value over the 5 tested concentrations (1 to 50 uM); for Toxicity Data, Average, Mean percentage relative to DMSO control: Average of Exp 1 (SMW491) and Exp 2 (SMW492); for Toxicity Data, Percentage Relative to Appropriate DMSO Control: single well

Compound: Cc1cc(CN(CCN(C)C)Cc2ccco2)sc1Br [SILCS15]
- Infection Data: Percentage Infection Relative to Appropriate DMSO Control (SARS2; 1 uM, Exp 1 (SMW475)): 117.62% and 124.56% and 121.12%
- Infection Data: Percentage Infection Relative to Appropriate DMSO Control (SARS2; 1 uM, Exp 2 (SMW477)): 103.78% and 103.22% and 100.05%
- Infection Data: Percentage Infection Relative to Appropriate DMSO Control (SARS2; 1 uM, Exp 3 (SMW478)): 107.90% and 99.19% and 97.03%
- Infection Data: Average, Mean (SARS2; 1 uM): 108.27%
- Infection Data: Percentage Infection Relative to Appropriate DMSO Control (SARS2; 5 uM, Exp 1 (SMW475)): 131.70% and 141.65% and 132.54%
- Infection Data: Percentage Infection Relative to Appropriate DMSO Control (SARS2; 5 uM, Exp 2 (SMW477)): 102.31% and 90.53% and 98.90%
- Infection Data: Percentage Infection Relative to Appropriate DMSO Control (SARS2; 5 uM, Exp 3 (SMW478)): 98.36% and 110.89% and 93.32%
- Infection Data: Average, Mean (SARS2; 5 uM): 111.13%
- Infection Data: Percentage Infection Relative to Appropriate DMSO Control (SARS2; 10 uM, Exp 1 (SMW475)): 79.51% and 121.98% and 93.64%
- Infection Data: Percentage Infection Relative to Appropriate DMSO Control (SARS2; 10 uM, Exp 2 (SMW477)): 75.81% and 72.41% and 82.10%
- Infection Data: Percentage Infection Relative to Appropriate DMSO Control (SARS2; 10 uM, Exp 3 (SMW478)): 111.15% and 106.59% and 85.32%
- Infection Data: Average, Mean (SARS2; 10 uM): 92.05%
- Infection Data: Percentage Infection Relative to Appropriate DMSO Control (SARS2; 25 uM, Exp 1 (SMW475)): 30.31% and 27.68% and 26.54%
- Infection Data: Percentage Infection Relative to Appropriate DMSO Control (SARS2; 25 uM, Exp 2 (SMW477)): 35.02% and 27.68% and 29.29%
- Infection Data: Percentage Infection Relative to Appropriate DMSO Control (SARS2; 25 uM, Exp 3 (SMW478)): 35.78% and 39.52% and 32.45%
- Infection Data: Average, Mean (SARS2; 25 uM): 31.59%
- Infection Data: Percentage Infection Relative to Appropriate DMSO Control (SARS2; 50 uM, Exp 1 (SMW475)): 23.93% and 15.87% and 20.00%
- Infection Data: Percentage Infection Relative to Appropriate DMSO Control (SARS2; 50 uM, Exp 2 (SMW477)): 18.29% and 18.14% and 19.12%
- Infection Data: Percentage Infection Relative to Appropriate DMSO Control (SARS2; 50 uM, Exp 3 (SMW478)): 20.62% and 25.98% and 33.79%
- Infection Data: Average, Mean (SARS2; 50 uM): 21.75%
- Percentage Inhibition Average 1 μM (SARS2): −8.27%
- Screening data (Relative infection to DMSO controls) Average 1 μM (SARS2): 108.27
- Percentage Inhibition Average 5 μM (SARS2): −11.13%
- Screening data (Relative infection to DMSO controls) Average 5 μM (SARS2): 111.13
- Percentage Inhibition Average 10 μM (SARS2): 7.95%
- Screening data (Relative infection to DMSO controls) Average 10 μM (SARS2): 92.05
- Percentage Inhibition Average 25 μM (SARS2): 68.41%
- Screening data (Relative infection to DMSO controls) Average 25 μM (SARS2): 31.59
- Percentage Inhibition Average 50 μM (SARS2): 78.25%
- Screening data (Relative infection to DMSO controls) Average 50 μM (SARS2): 21.75
- Average (relative infection to DMSO over the 5 tested concentrations) (SARS2): 72.96
- Toxicity Data: Average, Mean (cells (nuclei count); 1 uM): 105.96%
- Relative cell count to DMSO controls, Average 1 μM (cells (nuclei count)): 105.96
- Toxicity Data: Average, Mean (cells (nuclei count); 5 uM): 104.00%
- Relative cell count to DMSO controls, Average 5 μM (cells (nuclei count)): 104
- Toxicity Data: Average, Mean (cells (nuclei count); 10 uM): 107.75%
- Relative cell count to DMSO controls, Average 10 μM (cells (nuclei count)): 107.75
- Toxicity Data: Average, Mean (cells (nuclei count); 25 uM): 115.74%
- Relative cell count to DMSO controls, Average 25 μM (cells (nuclei count)): 115.74
- Toxicity Data: Average, Mean (cells (nuclei count); 50 uM): 65.19%
- Relative cell count to DMSO controls, Average 50 μM (cells (nuclei count)): 65.19
- Relative cell count to DMSO controls, Average (for correlation analysis) (cells (nuclei count)): 99.73

Compound: COc1ccc(CNCCc2ccccc2F)c(OCC(O)CN2CCCC2)c1 (racemic) [SILCS43]
- SARS2 antiviral activity (SARS2): highest activity to date; also recorded: most potent
- potency relative to UMB18 (more potent) (SARS2): 3-4
- Infection Data, Average, Mean percentage infection relative to DMSO control (SARS2; n=4, 1 uM): 18.21%
- Infection Data, Average, Mean percentage infection relative to DMSO control (SARS2; n=4, 5 uM): 6.50%
- Infection Data, Average, Mean percentage infection relative to DMSO control (SARS2; n=4, 10 uM): 0.85%
- Infection Data, Average, Mean percentage infection relative to DMSO control (SARS2; n=4, 25 uM): 6.12%
- Infection Data, Average, Mean percentage infection relative to DMSO control (SARS2; n=4, 50 uM): −13.34%
- Infection Data, Percentage Infection Relative to Appropriate DMSO Control (SARS2; Exp 1 (SMW491), 1 uM): 11.14% and 9.36%
- Infection Data, Percentage Infection Relative to Appropriate DMSO Control (SARS2; Exp 1 (SMW491), 5 uM): 5.93% and 4.01%
- Infection Data, Percentage Infection Relative to Appropriate DMSO Control (SARS2; Exp 1 (SMW491), 10 uM): 0.28% and −0.66%
- Infection Data, Percentage Infection Relative to Appropriate DMSO Control (SARS2; Exp 1 (SMW491), 25 uM): 1.98% and −0.83%
- Infection Data, Percentage Infection Relative to Appropriate DMSO Control (SARS2; Exp 1 (SMW491), 50 uM): −10.07%
- Infection Data, Percentage Infection Relative to Appropriate DMSO Control (SARS2; Exp 2 (SMW492), 1 uM): 18.42% and 33.91%
- Infection Data, Percentage Infection Relative to Appropriate DMSO Control (SARS2; Exp 2 (SMW492), 10 uM): 1.81% and 1.99%
- Infection Data, Percentage Infection Relative to Appropriate DMSO Control (SARS2; Exp 2 (SMW492), 50 uM): −16.61%
- Percentage Inhibition Average 1 μM (SARS2): 81.79%
- Screening data (Relative infection to DMSO controls) Average 1 μM (SARS2): 18.21
- Percentage Inhibition Average 5 μM (SARS2): 93.50%
- Screening data (Relative infection to DMSO controls) Average 5 μM (SARS2): 6.50
- Percentage Inhibition Average 10 μM (SARS2): 99.15%
- Screening data (Relative infection to DMSO controls) Average 10 μM (SARS2): 0.85
- Percentage Inhibition Average 25 μM (SARS2): 93.88%
- Screening data (Relative infection to DMSO controls) Average 25 μM (SARS2): 6.12
- Percentage Inhibition Average 50 μM (SARS2): 113.34%
- Screening data (Relative infection to DMSO controls) Average 50 μM (SARS2): −13.34
- Average (relative infection to DMSO over the 5 tested concentrations) (SARS2): 3.67
- apparent IC50 (SARS2; racemic mixture): high nanomolar range
- Relative cell count to DMSO controls, Average 1 μM (cells (nuclei count)): 154.73
- Relative cell count to DMSO controls, Average 5 μM (cells (nuclei count)): 151.78
- Relative cell count to DMSO controls, Average 10 μM (cells (nuclei count)): 132.39
- Relative cell count to DMSO controls, Average 25 μM (cells (nuclei count)): 136.27
- Relative cell count to DMSO controls, Average 50 μM (cells (nuclei count)): 0.01
- Toxicity Data, Average, Mean percentage relative to DMSO control (cells (nuclei count); n=4, 1 uM): 154.73%
- Toxicity Data, Average, Mean percentage relative to DMSO control (cells (nuclei count); n=4, 5 uM): 151.78%
- Toxicity Data, Average, Mean percentage relative to DMSO control (cells (nuclei count); n=4, 10 uM): 132.39%
- Toxicity Data, Average, Mean percentage relative to DMSO control (cells (nuclei count); n=4, 25 uM): 136.27%
- Toxicity Data, Average, Mean percentage relative to DMSO control (cells (nuclei count); n=4, 50 uM): 0.01%
- Toxicity Data, Percentage Relative to Appropriate DMSO Control (cells (nuclei count); Exp 1 (SMW491), 1 uM): 151% and 166%
- Toxicity Data, Percentage Relative to Appropriate DMSO Control (cells (nuclei count); Exp 1 (SMW491), 5 uM): 130% and 166%
- Toxicity Data, Percentage Relative to Appropriate DMSO Control (cells (nuclei count); Exp 1 (SMW491), 10 uM): 118% and 121%
- Toxicity Data, Percentage Relative to Appropriate DMSO Control (cells (nuclei count); Exp 1 (SMW491), 25 uM): 121% and 136%
- Toxicity Data, Percentage Relative to Appropriate DMSO Control (cells (nuclei count); Exp 1 (SMW491), 50 uM): 0%
- Toxicity Data, Percentage Relative to Appropriate DMSO Control (cells (nuclei count); Exp 2 (SMW492), 1 uM): 156% and 145%
- Toxicity Data, Percentage Relative to Appropriate DMSO Control (cells (nuclei count); Exp 2 (SMW492), 5 uM): 155% and 156%
- Toxicity Data, Percentage Relative to Appropriate DMSO Control (cells (nuclei count); Exp 2 (SMW492), 10 uM): 145% and 146%
- Toxicity Data, Percentage Relative to Appropriate DMSO Control (cells (nuclei count); Exp 2 (SMW492), 25 uM): 143% and 145%
- Toxicity Data, Percentage Relative to Appropriate DMSO Control (cells (nuclei count); Exp 2 (SMW492), 50 uM): 0%
- Relative cell count to DMSO controls, Average (for correlation analysis) (cells (nuclei count)): 115.04
